Results taken from patent US8628931B2, “mTOR pathway theranostic” (George Mason Intellectual Properties, Inc., priority 2005, dated 2014).

Tests used:
Assay type in all cases: in vivo, mouse
[1] = test system: Rh30 alveolar rhabdomyosarcoma xenograft; experiment: CCI-779 suppression of Rh30 rhabdomyosarcoma xenograft tumor growth; details: Rh30 orthotopic xenograft, SCID beige mice, 20 mg/kg IP every 3 days for 30 days, calipers
Procedure: (§1) (FIG. 6A) Time dependent CCI-779 inhibition of phosphorylation of mTOR pathway downstream substrates within tumor tissue in a xenograft treatment model. […] (FIG. 6B) CCI-779 inhibited tumor growth in Rh30 and RD mouse xenograft models. 2×10^6 cells in 0.2 mL total volume per mouse, from either Rh30 alveolar or RD embryonal cell lines, were injected orthotopically into the left hind leg gastrocnemius muscle of a SCID beige murine model. After 1 week, mice were assigned to control (n=8) or CCI-779 treatment groups (n=8). Tumor volume, as measured with calipers, was less in the CCI-779 treatment group as compared to the vehicle alone for both the Rh30 and RD xenografts --▴-- RD control, -▪- Rh30 plus CCI-779, -- ♦-- Rh30 control --X- RD plus CCI-779, (RD p=0.00008; Rh30 p=0.0002, Student's t-test). (FIG. 6C) CCI-779 was administered at 20 mg/kg/IP every 3 days for 30 days. Protein extracts from Rh30 and RD mouse xenograft tumors or uninvolved muscle were treated with CCI-779 or vehicle for 30 days and analyzed by Western blotting for S6 and 4EBP1 phosphorylation.
(§2) 5. In vivo xenograft tumor model. […] Tumor growth was measured every 3 days with calipers, and tumor volume was calculated by the formula V (mm^3)=a×b^2, where a is the longest tumor axis, and b is the shortest tumor axis. […]

[2] = test system: RD embryonal rhabdomyosarcoma xenograft; experiment: CCI-779 suppression of RD rhabdomyosarcoma xenograft tumor growth; details: RD orthotopic xenograft, SCID beige mice, 20 mg/kg IP every 3 days for 30 days, calipers
Procedure: as §1, §2

[3] = test system: mTOR pathway substrates pS6 Ser235/236 and 4EBP1 Thr70; experiment: Time dependent inhibition of phosphorylation of mTOR pathway downstream substrates in xenograft treatment model (FIG. 6A); details: non-involved muscle and tumor tissue, compared to actin
Procedure: as §1, §2

[4] = test system: mTOR downstream targets 4EBP1 and S6; experiment: Western blotting for S6 and 4EBP1 phosphorylation, Rh30 xenograft tumors or uninvolved muscle
Procedure: as §1, §2

[5] = test system: mTOR downstream targets 4EBP1 and S6; experiment: Western blotting for S6 and 4EBP1 phosphorylation, RD xenograft tumors or uninvolved muscle
Procedure: as §1, §2

CO[C@H]1C[C@@H]2CC[C@@H](C)[C@@](O)(O2)C(=O)C(=O)N2CCCC[C@H]2C(=O)O[C@H]([C@H](C)C[C@@H]2CC[C@@H](OC(=O)C(C)(CO)CO)[C@H](OC)C2)CC(=O)[C@H](C)/C=C(\C)[C@@H](O)[C@@H](OC)C(=O)[C@H](C)C[C@H](C)/C=C/C=C/C=C/1C [CCI-779, 40-[3-hydroxy(hydroxymethyl)methylpropanoate]-rapamycin]
Tumor volume / tumor growth compared to vehicle alone [1]: less and profoundly reduced the growth | Tumor volume / tumor growth compared to vehicle alone [2]: less and profoundly reduced the growth | Phosphorylation of 4EBP1 Thr70 [3]: inhibited phosphorylation | Phosphorylation of pS6 Ser235/236 [3]: inhibited phosphorylation | Phosphorylation of mTOR downstream targets (4EBP1 and S6) ([4]; Rh30 alveolar xenograft derived tumors): inhibited the expected phosphorylation | Phosphorylation of 4EBP1 ([4]; Rh30 muscle and tumor cells, 20 mg/kg IP every 3 days for 30 days, Western blot): suppresses phosphorylation | Phosphorylation of mTOR downstream targets (4EBP1 and S6) ([5]; RD embryonal xenograft derived tumors): inhibited the expected phosphorylation | Phosphorylation of 4EBP1 ([5]; RD muscle and tumor cells, 20 mg/kg IP every 3 days for 30 days, Western blot): suppresses phosphorylation
